What follows are compounds tested against human factor Xa (Homo sapiens, UniProt P00742) (assay: Factor Xa assay (chromogenic, substrate S-2765)).
human factor Xa, sequence (P00742 235-488 limits assumed): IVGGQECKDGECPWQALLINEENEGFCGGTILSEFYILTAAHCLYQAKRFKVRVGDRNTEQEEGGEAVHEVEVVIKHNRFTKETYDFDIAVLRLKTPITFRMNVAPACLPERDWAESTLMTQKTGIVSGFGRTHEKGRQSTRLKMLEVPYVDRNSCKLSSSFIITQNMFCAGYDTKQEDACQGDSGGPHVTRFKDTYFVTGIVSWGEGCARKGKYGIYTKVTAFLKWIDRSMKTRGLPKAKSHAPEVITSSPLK
human factor Xa, sequence (P00742 41-179 partner limits assumed): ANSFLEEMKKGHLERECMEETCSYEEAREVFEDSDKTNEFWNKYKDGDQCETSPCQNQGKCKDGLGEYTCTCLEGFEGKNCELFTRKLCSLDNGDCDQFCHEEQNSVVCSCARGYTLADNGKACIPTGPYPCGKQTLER

**Q.** `CC(C)N1CCC(NC(=O)c2nn(Cc3cc(-c4ccc(Cl)s4)on3)c3ccc(C(=O)N(C)CC(=O)O)cc23)CC1` [Example 28, {[1-[5-(5-Chloro-thiophen-2-yl)-isoxazol-3-ylmethyl]-3-(1-isopropyl-piperidin-4-ylcarbamoyl)-1H-indazole-5-carbonyl]-methyl-amino}-acetic acid] was tested. Which Ki did it give?
**A.** 15 nM

**Q.** How did the Ki turn out when `CC(C)N1CCC(NC(=O)c2nn(Cc3cc(-c4ccc(Cl)s4)on3)c3ccc(C(=O)N4CC[C@H]4C(=O)O)cc23)CC1` [Example 26, 1-[1-[5-(5-Chloro-thiophen-2-yl)-isoxazol-3-ylmethyl]-3-(1-isopropyl-piperidin-4-ylcarbamoyl)-1H-indazole-5-carbonyl]-(2S)-azetidine-2-carboxylic acid] was run?
**A.** 17 nM

**Q.** How did the Ki turn out when `O=C(Nc1ccc(C(=O)N2CCOCC2)cc1)c1nn(Cc2cc(-c3ccc(Cl)s3)on2)c2ccccc12` [Example 35, 1-[5-(5-Chloro-thiophen-2-yl)-isoxazol-3-ylmethyl]-1H-indazole-3-carboxylic acid [4-(morpholine-4-carbonyl)-phenyl]-amide] was run?
**A.** 530 nM

**Q.** For `COCCOC(=O)c1ccc2c(c1)c(C(=O)NC1CCN(C(C)C)CC1)nn2Cc1cc(-c2ccc(Cl)s2)on1` [Example 56, 1-[5-(5-Chloro-thiophen-2-yl)-isoxazol-3-ylmethyl]-3-(1-isopropyl-piperidin-4-ylcarbamoyl)-1H-indazole-5-carboxylic acid 2-methoxy-ethyl ester], which Ki is on record?
**A.** 43 nM

**Q.** `CC(C)N1CCC(NC(=O)c2nn(CC(=O)Nc3ccc(Cl)cn3)c3ccccc23)CC1` [Example 7] was tested. Which Ki did it give?
**A.** 86 nM

**Q.** How did the Ki turn out when `COC(=O)c1ccc2c(C(=O)NC3CCN(C(C)C)CC3)nn(Cc3cc(-c4ccc(Cl)s4)on3)c2c1` [Example 2, 1-[5-(5-Chloro-thiophen-2-yl)-isoxazol-3-ylmethyl]-3-(1-isopropyl-piperidin-4-ylcarbamoyl)-1H-indazole-6-carboxylic acid methyl ester] was run?
**A.** 35 nM

**Q.** `O=C(Cn1nc(C(=O)Nc2ccc(N3CCOCC3=O)cc2)c2ccccc21)Nc1ccc(Cl)cn1` [Example 53, 1-[(5-Chloro-pyridin-2-ylcarbamoyl)-methyl]-1H-indazole-3-carboxylic acid [4-(3-oxo-morpholin-4-yl)-phenyl]-amide] was tested. Which Ki did it give?
**A.** 240 nM

**Q.** Which Ki does the source give for `CCOC(=O)CNC(=O)c1ccc2c(c1)c(C(=O)NC1CCN(C(C)C)CC1)nn2Cc1cc(-c2ccc(Cl)s2)on1` [Example 19, {[1-[5-(5-Chloro-thiophen-2-yl)-isoxazol-3-ylmethyl]-3-(1-isopropyl-piperidin-4-ylcarbamoyl)-1H-indazole-5-carbonyl]-amino}-acetic acid ethyl ester] here?
**A.** 26 nM

**Q.** With `CC(C)N1CCC(NC(=O)c2nn(Cc3cc(-c4ccc(Cl)s4)on3)c3ccc(C(=O)N(CCO)CCO)cc23)CC1` [Example 17, 1-[5-(5-Chloro-thiophen-2-yl)-isoxazol-3-ylmethyl]-1H-indazole-3,5-dicarboxylic acid 5-[bis-(2-hydroxy-ethyl)-amide]3-[(1-isopropyl-piperidin-4-yl)-amide]] as the compound, how does the Ki read?
**A.** 30 nM

**Q.** How did the Ki turn out when `CONC(=O)c1ccc2c(c1)c(C(=O)NC1CCN(C(C)C)CC1)nn2Cc1cc(-c2ccc(Cl)s2)on1` [Example 32, 1-[5-(5-Chloro-thiophen-2-yl)-isoxazol-3-ylmethyl]-1H-indazole-3,5-dicarboxylic acid 3-[(1-isopropyl-piperidin-4-yl)-amide]5-(methoxy-amide)] was run?
**A.** 22 nM

**Q.** `CC(C)N1CCC(NC(=O)c2nn(Cc3cc(-c4ccc(Cl)s4)on3)c3ccc(C(=O)NCC(F)(F)F)cc23)CC1` [Example 27, 1-[5-(5-Chloro-thiophen-2-yl)-isoxazol-3-ylmethyl]-1H-indazole-3,5-dicarboxylic acid 3-[(1-isopropyl-piperidin-4-yl)-amide]5-[(2,2,2-trifluoro-ethyl)-amide]] was tested. Which Ki did it give?
**A.** 39 nM

**Q.** How did the Ki turn out when `CCOC(=O)OC(C)OC(=O)c1ccc2c(c1)c(C(=O)NC1CCN(C(C)C)CC1)nn2Cc1cc(-c2ccc(Cl)s2)on1` (stereo not drawn) [Example 9, 1-[5-(5-Chloro-thiophen-2-yl)-isoxazol-3-ylmethyl]-3-(1-isopropyl-piperidin-4-ylcarbamoyl)-1H-indazole-5-carboxylic acid 1-ethoxycarbonyloxy-ethyl ester] was run?
**A.** 82 nM

**Q.** `Cc1oc(=O)oc1COC(=O)c1ccc2c(c1)c(C(=O)NC1CCN(C(C)C)CC1)nn2Cc1cc(-c2ccc(Cl)s2)on1` [Example 50, 1-[5-(5-Chloro-thiophen-2-yl)-isoxazol-3-ylmethyl]-3-(1-isopropyl-piperidin-4-ylcarbamoyl)-1H-indazole-5-carboxylic acid 5-methyl-2-oxo-[1,3]dioxol-4-ylmethyl ester] was tested. Which Ki did it give?
**A.** 41 nM

**Q.** `COC(=O)c1cccc2c(C(=O)NC3CCN(C(C)C)CC3)nn(Cc3cc(-c4ccc(Cl)s4)on3)c12` [Example 3, 1-[5-(5-Chloro-thiophen-2-yl)-isoxazol-3-ylmethyl]-3-(1-isopropyl-piperidin-4-ylcarbamoyl)-1H-indazole-7-carboxylic acid methyl ester] was tested. Which Ki did it give?
**A.** 17 nM

**Q.** Which Ki does the source give for `CC(C)N1CCC(NC(=O)c2nn(Cc3cc(-c4ccc(Cl)s4)on3)c3ccc(C(=O)NCCO)cc23)CC1` [Example 22, 1-[5-(5-Chloro-thiophen-2-yl)-isoxazol-3-ylmethyl]-1H-indazole-3,5-dicarboxylic acid 5-[(2-hydroxy-ethyl)-amide]3-[(1-isopropyl-piperidin-4-yl)-amide]] here?
**A.** 28 nM

From US7365088B2, “Indazole-derivatives as factor Xa inhibitors” (Sanofi-Aventis Deutschland GmbH, priority 2003, dated 2008)
